Among the data in PubChem BioAssay AID1626 (SRMLSC, 2009) are IC50, IC90 and CC50 values, retold here.

This assay concerns M. tuberculosis H37Rv growth inhibition. Kind of assay: M. tuberculosis H37Rv growth inhibitors, H37Rv strain (AID 1626). The note with it: for IC90: measured here: IC90 against H37Rv; for CC50: measured here: Vero cell cytotoxicity.

Structures are written as SMILES. pIC50: −log10 of the molar value.

What is called pIC50 is the negative decadic logarithm of the IC50, by convention in mol/L. As usually defined, the IC90 is the concentration needed for an effect of 90%. Read a high IC90 as weaker potency. `CCOc1ccc(N2CC(=O)Nc3ccccc3NCC2=O)cc1`: the negative logarithm of the IC50 (pIC50) was 4.90 and the IC90 was > 100 µM.

Broadly, the CC50 is the concentration at which the toxic effect on the cells reaches its halfway point. The low end stands for greater toxicity to the cells, the high end for lower toxicity to the cells. As for `O=C(CSc1nc(-c2ccccc2Cl)ns1)Nc1ccc2c(c1)OCO2`, the CC50 was > 40 µM.

Regarding `O=C1C=C(Nc2ccccc2)C(=O)c2ccccc21`, the pIC50 was 4.93, the IC90 came to 13.4 µM and the half-maximal cytotoxic concentration (CC50) was > 40 µM.

`Cc1ccc(-c2nnc(SCC#CCOC(=O)c3ccco3)o2)cc1`: the negative logarithm of the IC50 (pIC50) is > 6.41 and the 90% effect concentration (IC90) was 3.43 µM.

In the case of `CCCCOC(=O)Cn1c(-c2ccccc2)nc2ccccc2c1=O`, the pIC50 is 5.11 and the IC90 was determined as 18.5 µM.

For the compound `Cc1ccc(-c2ccc(SCC(=O)Nc3nonc3C)nn2)cc1`, the pIC50 was 5.75 and the IC90 came to 3.88 µM.

For the compound `CN1CCN(C2=Cc3ccc(Cl)cc3Sc3ccc(F)cc32)CC1`, the negative-log IC50 (pIC50) was 4.96, the IC90 was found to be 12.3 µM and the CC50 was 33.9 µM.

Turning to `CCOC(=O)N1CCC(N2CCCC(C(=O)c3ccc4cc(OC)ccc4c3)C2)CC1` (configuration not stated), the negative logarithm of the IC50 (pIC50) is 5.05, the IC90 is 25.1 µM and the 50% cytotoxic concentration (CC50) is > 40 µM.

Turning to `Cc1ccc(NC(=O)NC2CCCCC2)cc1Cl`, the negative logarithm of the IC50 (pIC50) was 5.22, the IC90 is > 100 µM and the cytotoxic concentration (CC50) is > 40 µM.

Regarding `COc1ccc(NC(=O)NC(C)C2CC3CCC2C3)cc1` (configuration not stated), the pIC50 was 5.13, the IC90 was > 100 µM and the CC50 was > 40 µM.

In the case of `CCOc1ccc(NC(=O)Nc2ccccc2SC)cc1`, the 50% cytotoxic concentration (CC50) was > 40 µM.

In the case of `FC(F)(F)c1nnc(-c2ccccc2)nc1Sc1ccccc1`, the negative-log IC50 (pIC50) is 4.66, the concentration for an effect of 90% (IC90) was 25.3 µM and the CC50 was > 40 µM.

Turning to `CSc1nsc(SCC(=O)Nc2ccc(OC(C)=O)cc2)n1`, the pIC50 was 5.59 and the IC90 came to 3.79 µM.

Regarding `COc1ccccc1/C=C/CN1CCCC(CO)(Cc2cccc(Cl)c2)C1` (configuration not stated), the pIC50 was 4.96, the IC90 is 16.4 µM and the CC50 was > 40 µM.

As to `Cc1ccc(Cc2cnc(N3C(=N)SC(C)C3=O)s2)cc1` (configuration not stated), the pIC50 was 5.45, the IC90 was found to be 18.1 µM and the CC50 is > 40 µM.

Regarding `Cc1ccn2c(Nc3ccccc3C)c(-c3ccccn3)nc2c1`, the pIC50 is 5.85, the IC90 was 1.59 µM and the CC50 came to 3.12 µM.

With `O=C1Nc2ccccc2/C1=N\N=C\C1=C(N2CCOCC2)C(=C\c2ccccc2)/CC1`, the pIC50 is 5.89, the IC90 was determined as 1.86 µM and the CC50 is > 40 µM.

Turning to `CCOC(=O)c1ccc(NC(=O)C2CC2)cc1`, the pIC50 was 4.54 and the IC90 was > 100 µM.

Turning to `Cc1ccc(-c2c[n+](CC(=O)N3c4ccccc4Sc4ccccc43)c3n2CCC3)cc1`, the pIC50 was 5.10 and the 90% effect concentration (IC90) is 20.6 µM.

Regarding `Clc1ccc(Nc2ncn[nH]2)c(Cl)c1`, the negative-log IC50 (pIC50) was 5.18, the 90% effect concentration (IC90) is > 100 µM and the CC50 was > 40 µM.

Turning to `CN(C)CCCN(C(=O)CCc1ccccc1)c1nc2ccc(Br)cc2s1`, the pIC50 was 4.65, the IC90 worked out at 24.2 µM and the half-maximal cytotoxic concentration (CC50) turned out to be 16.7 µM.

In the case of `COc1ccc(OCC(O)Cn2c(=N)n(CCN3CCCCC3)c3ccccc32)cc1` (configuration not stated), the negative-log IC50 (pIC50) was 5.21, the IC90 was found to be 6.86 µM and the CC50 was > 40 µM.

Regarding `Cc1ccc(-n2cc(CN(C)Cc3ncc[nH]3)c(-c3cccc(C)c3)n2)cc1`, the pIC50 is 4.99, the IC90 was 13.5 µM and the CC50 is > 40 µM.

Take `CCN(CC(=O)NC(C)(C)C)C(=O)COc1c(Cl)cc(Cl)c2ccc(C)nc12`: the pIC50 was 5.41, the IC90 was 13.9 µM and the cytotoxic concentration (CC50) worked out at 36.8 µM.

As for `O=c1c(O)c(-c2cccs2)oc2ccc(Cl)cc12`, the pIC50 was 5.02, the concentration for an effect of 90% (IC90) is > 100 µM and the 50% cytotoxic concentration (CC50) is > 40 µM.

Regarding `CC1(C)CC(=O)C(C=Nc2ccc3c(c2)OCO3)=C(O)C1`, the 90% effect concentration (IC90) is > 100 µM.

Regarding `Cc1cc(=O)oc2cc(Oc3ccc([N+](=O)[O-])cc3C(F)(F)F)ccc12`, the pIC50 is 4.91 and the concentration for an effect of 90% (IC90) was > 100 µM.

As to `CCSc1nnc(NC(=O)c2ccc3ccccc3n2)s1`, the pIC50 is 6.20, the IC90 came out at 2.19 µM and the CC50 is 38.1 µM.

With `O=C(Nc1ccc(Cl)cc1)Nc1csc([N+](=O)[O-])c1`, the negative-log IC50 (pIC50) is 4.10 and the concentration for an effect of 90% (IC90) is > 100 µM.

In the case of `c1ccc(Oc2nc(-c3ccccn3)nc3ccccc23)cc1`, the pIC50 is 5.57, the IC90 was 13.8 µM and the 50% cytotoxic concentration (CC50) is > 40 µM.

For the compound `COc1ccc(N=C2C(=O)N3CCCc4cccc2c43)cc1`, the 90% effect concentration (IC90) was > 100 µM.

`Cc1ccc(NC(=O)/C=C/c2ccc([N+](=O)[O-])s2)c(C)c1`: the pIC50 was 5.75, the IC90 came to 4.42 µM and the CC50 was 19.5 µM.

With `Cn1c(O)c(C=Nc2ccccc2-c2ccccc2)c(=O)n(C)c1=O`, the half-maximal cytotoxic concentration (CC50) was > 40 µM.

Regarding `COC(=O)c1cccc(NC(=O)NC23CC4CC(CC(C4)C2)C3)c1`, the negative logarithm of the IC50 (pIC50) is 4.62, the IC90 was > 100 µM and the CC50 was > 40 µM.

Take `CCc1ccc(NC(=O)c2cnc(N3CCN(c4ccccn4)CC3)c3ccccc23)cc1`: the pIC50 was 6.35, the IC90 was 5.71 µM and the 50% cytotoxic concentration (CC50) was > 40 µM.

In the case of `N#CCc1ccc(NC(=O)/C=C/c2ccc([N+](=O)[O-])o2)cc1`, the negative logarithm of the IC50 (pIC50) is > 6.41, the 90% effect concentration (IC90) was < 0.391 µM and the half-maximal cytotoxic concentration (CC50) worked out at 0.277 µM.

Regarding `CCCCCc1cc(=O)oc2c(C(CCN3CCCC3)c3ccc(N(C)C)cc3)c(OC)cc(OC)c12` (configuration not stated), the pIC50 is 5.36, the IC90 came out at 6.04 µM and the half-maximal cytotoxic concentration (CC50) amounted to 14 µM.

On to `O=C(COc1ccc2c(c1)OCO2)Nc1ccc2c(c1)oc1ccccc12`, for which the 90% effect concentration (IC90) is > 100 µM and the CC50 was > 40 µM.

Regarding `O=[N+]([O-])c1ncccc1Oc1nc(-c2cccnc2)nc2ccccc12`, the negative logarithm of the IC50 (pIC50) is 5.15 and the IC90 is > 100 µM.

For `CCSCc1nnc(SCC(=O)Nc2cccc(SC)c2)n1C`, the pIC50 was 4.36 and the IC90 is > 100 µM.

In the case of `Cc1ccc(-n2c(C)cc(C3N=C(N)Nc4nc5ccccc5n43)c2C)c(C)c1` (configuration not stated), the negative-log IC50 (pIC50) was 5.08, the 90% effect concentration (IC90) is 10.8 µM and the cytotoxic concentration (CC50) is > 40 µM.

As to `O=C(c1ccccc1)N1CCN(c2ccc([N+](=O)[O-])cc2-n2cccc2)CC1`, the pIC50 is 5.38, the concentration for an effect of 90% (IC90) is 7.26 µM and the CC50 was > 40 µM.

As for `CNc1nc(-c2ccccn2)nnc1-c1ccccc1`, the pIC50 was 5.07, the IC90 came to 11.1 µM and the CC50 was determined as 11.3 µM.

With `COc1ccc(NCC(=O)Nc2ccc(Cl)cc2C)c(OC)c1`, the pIC50 was 4.56 and the concentration for an effect of 90% (IC90) is > 100 µM.

With `CCOC(=O)c1cnc(-n2nc(C)cc2C)nc1N(CC)CC`, the pIC50 was 5.42, the 90% effect concentration (IC90) is 6.53 µM and the CC50 is > 40 µM.

With `Cc1c(-c2cccc(Cl)c2)nc2ccccc2c1C(=O)OCC(=O)Nc1ccc2c(c1)OCO2`, the pIC50 was 4.96, the concentration for an effect of 90% (IC90) is > 100 µM and the cytotoxic concentration (CC50) turned out to be 38.8 µM.

As for `COc1ccc(NC(C#N)c2ccccc2OCc2ccccc2)cc1` (configuration not stated), the pIC50 is 4.16 and the 90% effect concentration (IC90) was > 100 µM.

`Cc1cc(NC(=O)CSc2nnc(-c3ccc4c(c3)OCCO4)o2)no1`: the negative logarithm of the IC50 (pIC50) is 5.83, the 90% effect concentration (IC90) is 2.53 µM and the cytotoxic concentration (CC50) is > 40 µM.

Turning to `Nc1ccc(-c2cc(-c3cccc(N)c3)nc(-c3ccccc3)n2)cc1`, the half-maximal cytotoxic concentration (CC50) was > 40 µM.

Take `CCCCCCc1ccc(OCC(=O)OC)cc1OCC(=O)OC`: the negative logarithm of the IC50 (pIC50) is 5.74 and the 90% effect concentration (IC90) came out at 20.1 µM.

For the compound `O=C(CCc1ccc(Oc2cc([N+](=O)[O-])cc([N+](=O)[O-])c2)cc1)N1CCCCCC1`, the negative logarithm of the IC50 (pIC50) is 5.12, the IC90 is 15.6 µM and the cytotoxic concentration (CC50) was determined as 37.2 µM.

`O=C(Nc1ccccc1Cl)Oc1ccc(-c2ccccc2)cc1`: the negative-log IC50 (pIC50) is 4.23, the 90% effect concentration (IC90) is > 100 µM and the cytotoxic concentration (CC50) is > 40 µM.

In the case of `CC(=O)Nc1cccc(OCc2ccc(F)cc2)c1`, the concentration for an effect of 90% (IC90) is > 100 µM and the CC50 was > 40 µM.

With `Cc1ccc(Cl)c(OC(=O)c2ccc(N3CCOCC3)c([N+](=O)[O-])c2)c1`, the pIC50 was 5.18 and the IC90 was > 100 µM.

With `O=C(COC(=O)c1cccs1)c1ccc2c(c1)OCCO2`, the pIC50 was 5.06 and the IC90 is 19.2 µM.

As to `O=C1C=C(Nc2ccccc2O)c2ccccc2C1=O`, the negative-log IC50 (pIC50) is 4.63, the IC90 stood at 26.6 µM and the CC50 came out at 13.3 µM.

For `Cc1ccc(NC(=O)c2ccc(CSc3nccc(C)n3)cc2)cc1`, the negative logarithm of the IC50 (pIC50) was 4.91 and the concentration for an effect of 90% (IC90) is > 100 µM.

In the case of `COc1cccc(/C=C2\Sc3ccc(C(=O)NCc4cccnc4)cc3N(C)C2=O)c1`, the pIC50 was 5.55, the concentration for an effect of 90% (IC90) was 6.21 µM and the CC50 was > 40 µM.

With `CCCn1c(=N)c(C(=O)NCc2ccc3c(c2)OCO3)cc2c(=O)n3cccc(C)c3nc21`, the pIC50 was 4.71, the IC90 worked out at 31.7 µM and the CC50 is > 40 µM.

Regarding `O=C(CCN1C(=O)C2CCCCC2C1=O)Nc1nc(-c2ccc(F)c(F)c2)cs1` (configuration not stated), the pIC50 was 4.32 and the 90% effect concentration (IC90) was > 100 µM.

Turning to `O=[N+]([O-])c1cc(C(F)(F)F)ccc1Oc1cccnc1[N+](=O)[O-]`, the negative logarithm of the IC50 (pIC50) is 5.81 and the IC90 is 1.73 µM.

As to `NC1=NC[C@H](Cc2ccc(O)cc2)N1CCC12CC3CC(CC(C3)C1)C2`, the negative-log IC50 (pIC50) is 5.23 and the IC90 came out at 9.05 µM.

`CCOc1ccc(NC(=O)CSC2=NCCN2)cc1`: the negative logarithm of the IC50 (pIC50) is 4.94 and the IC90 was > 100 µM.

In the case of `Cc1[nH]n(-c2ccc(Cl)cc2)c(=O)c1N=Nc1cccnc1`, the pIC50 is 5.47, the 90% effect concentration (IC90) is > 100 µM and the cytotoxic concentration (CC50) is 36.1 µM.

With `COc1ccc(/C=C2\SC(=N)N(c3nccs3)C2=O)cc1OC`, the pIC50 is > 6.71, the IC90 is > 100 µM and the 50% cytotoxic concentration (CC50) came to 17.9 µM.

For the compound `COc1ccc(-c2noc(CCC(=O)Nc3ccc4c(c3)OCCO4)n2)cc1`, the negative logarithm of the IC50 (pIC50) was 4.51 and the IC90 is > 100 µM.
